IC50 data for 18 compounds are collected here from patent US10125098B2, “Therapeutic compounds and methods of use thereof” (GENENTECH, INC., priority 2014, dated 2018).

Series [1] deals with T1, hNav1.7 (Homo sapiens, UniProt Q15858).
T1 construct: expressed in transfected cells
Nature of the series: Tritiated compound binding (LBA) to membranes from cells expressing hNav1.7 and the β1 subunit, competitive binding. Particulars: competitive binding vs 100 pM [3H]compound, 18 h, room temperature, membranes with hNav1.7 and β1 subunit. The method, boiled down:
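Competitive displacement of 100 pM [3H]compound (tritiated methyl analogue of formula (I)) from hNav1.7/β1 membranes, 18 h at room temperature in NaCl/Tris pH 7.4 buffer containing 0.01% BSA. 1 μM unlabeled compound set non-specific binding. Bound label quantified by scintillation after filtration; 4-parameter fit gave IC50.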

The target in series [2] is T2, human NaV1.7 (Homo sapiens, UniProt Q15858).
T2 construct: permanently transfected with an expression vector containing the full-length cDNA coding for the desired human sodium channel α-subunit; expressed in transfected cells; host or cells: HEK-293
Nature of the series: Patch voltage clamp electrophysiology assay (EP), NaV1.7. Format: cell-based. The conditions noted are these: HEK-293 cells stably expressing NaV1.7 with β1 subunit; whole-cell patch clamp, membrane potential −60 mV (inactivated state). In short, it runs like this:
(§1)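 Percent block is the drop in sodium current after compound wash-on, measured by a test pulse following 20 ms at −150 mV from a −60 mV inactivating holding potential.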
In general terms: The patch-clamp technique gives a direct electrical read-out from membranes.

Series [3] deals with T3, NaV1.5 (Homo sapiens, UniProt Q14524).
T3 construct: permanently transfected with an expression vector containing the full-length cDNA coding for the desired human sodium channel α-subunit; expressed in transfected cells; host or cells: HEK-293
Nature of the series: Patch voltage clamp electrophysiology assay (EP), NaV1.5. The class given is cell-based. The method, boiled down: as §1

Where [4] appears, read: HEK-293 cells stably expressing NaV1.5 with β1 subunit, whole-cell patch clamp, membrane potential −60 mV (inactivated state), read-out: Nav1.5.
The mark [5] stands for this setting: human, HEK-293 cells stably expressing human NaV1.5 with β1 subunit, pH 7.4, HEK-293 cells stably expressing NaV1.5 with β1 subunit, whole-cell patch clamp, membrane potential −60 mV (inactivated state).

Where two headings read alike, the source gives them in different places.

T1 sequence (Q15858 1-1977 isoform Q15858-3): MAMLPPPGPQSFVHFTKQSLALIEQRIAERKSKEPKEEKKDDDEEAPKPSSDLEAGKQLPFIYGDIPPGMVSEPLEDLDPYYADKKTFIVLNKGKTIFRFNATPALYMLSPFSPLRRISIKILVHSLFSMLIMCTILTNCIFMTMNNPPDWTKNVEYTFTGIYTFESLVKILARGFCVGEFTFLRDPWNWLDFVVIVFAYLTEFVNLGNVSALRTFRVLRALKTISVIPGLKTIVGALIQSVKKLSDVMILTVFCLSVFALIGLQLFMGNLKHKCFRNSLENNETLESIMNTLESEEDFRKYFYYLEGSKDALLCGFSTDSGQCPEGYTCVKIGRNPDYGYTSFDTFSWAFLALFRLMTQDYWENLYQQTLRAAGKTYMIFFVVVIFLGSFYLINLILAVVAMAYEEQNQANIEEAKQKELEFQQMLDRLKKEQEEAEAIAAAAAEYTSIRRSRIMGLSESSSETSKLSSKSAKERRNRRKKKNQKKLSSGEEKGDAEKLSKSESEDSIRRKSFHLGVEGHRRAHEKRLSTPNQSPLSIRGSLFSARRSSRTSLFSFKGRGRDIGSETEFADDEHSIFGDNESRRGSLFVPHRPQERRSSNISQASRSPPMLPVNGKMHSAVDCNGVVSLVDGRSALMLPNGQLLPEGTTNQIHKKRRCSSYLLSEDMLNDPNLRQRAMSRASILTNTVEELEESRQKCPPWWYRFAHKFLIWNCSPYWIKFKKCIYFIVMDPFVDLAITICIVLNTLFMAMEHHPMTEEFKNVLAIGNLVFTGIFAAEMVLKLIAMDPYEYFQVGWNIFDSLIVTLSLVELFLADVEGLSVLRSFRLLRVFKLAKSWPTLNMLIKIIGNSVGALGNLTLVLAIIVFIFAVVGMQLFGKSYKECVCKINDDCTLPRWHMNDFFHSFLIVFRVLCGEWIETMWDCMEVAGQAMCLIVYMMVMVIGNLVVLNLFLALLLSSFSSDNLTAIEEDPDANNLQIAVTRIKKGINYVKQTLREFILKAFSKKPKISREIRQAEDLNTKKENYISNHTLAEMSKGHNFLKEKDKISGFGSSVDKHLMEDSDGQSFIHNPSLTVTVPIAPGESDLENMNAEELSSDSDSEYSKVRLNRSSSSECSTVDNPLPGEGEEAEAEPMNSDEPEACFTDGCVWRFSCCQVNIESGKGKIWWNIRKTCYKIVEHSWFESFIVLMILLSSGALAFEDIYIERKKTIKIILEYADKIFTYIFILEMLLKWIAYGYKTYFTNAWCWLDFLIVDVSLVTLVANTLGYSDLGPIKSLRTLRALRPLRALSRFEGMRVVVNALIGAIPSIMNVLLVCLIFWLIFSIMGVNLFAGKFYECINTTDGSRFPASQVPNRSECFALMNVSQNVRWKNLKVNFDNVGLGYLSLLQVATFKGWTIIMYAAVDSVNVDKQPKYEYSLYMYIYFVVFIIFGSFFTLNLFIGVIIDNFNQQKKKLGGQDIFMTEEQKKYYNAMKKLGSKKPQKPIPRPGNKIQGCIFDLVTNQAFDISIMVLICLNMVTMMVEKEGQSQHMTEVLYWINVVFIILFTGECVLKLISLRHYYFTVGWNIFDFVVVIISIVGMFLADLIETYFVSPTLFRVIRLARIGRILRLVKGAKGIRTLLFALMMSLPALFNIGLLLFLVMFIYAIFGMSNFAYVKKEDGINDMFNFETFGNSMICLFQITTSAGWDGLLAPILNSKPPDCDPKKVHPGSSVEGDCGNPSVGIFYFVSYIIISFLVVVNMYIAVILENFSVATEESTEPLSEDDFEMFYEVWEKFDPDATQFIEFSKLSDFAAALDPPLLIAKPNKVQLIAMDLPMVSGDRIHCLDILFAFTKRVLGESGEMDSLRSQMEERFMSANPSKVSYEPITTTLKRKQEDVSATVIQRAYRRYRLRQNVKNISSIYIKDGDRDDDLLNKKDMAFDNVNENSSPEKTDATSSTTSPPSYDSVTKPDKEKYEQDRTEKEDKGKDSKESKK
T1 sequence (Q07699 19-218 partner): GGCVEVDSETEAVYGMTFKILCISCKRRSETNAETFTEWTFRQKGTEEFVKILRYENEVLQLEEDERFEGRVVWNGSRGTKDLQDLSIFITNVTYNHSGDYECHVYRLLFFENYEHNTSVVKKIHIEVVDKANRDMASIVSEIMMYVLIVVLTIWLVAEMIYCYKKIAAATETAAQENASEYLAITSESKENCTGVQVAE
T2 sequence (Q15858 1-1977 isoform Q15858-3): as the sequence (Q15858 1-1977 isoform Q15858-3) above
T2 sequence (Q07699 19-218 partner): as the sequence (Q07699 19-218 partner) above
T3 sequence (Q14524 whole entry): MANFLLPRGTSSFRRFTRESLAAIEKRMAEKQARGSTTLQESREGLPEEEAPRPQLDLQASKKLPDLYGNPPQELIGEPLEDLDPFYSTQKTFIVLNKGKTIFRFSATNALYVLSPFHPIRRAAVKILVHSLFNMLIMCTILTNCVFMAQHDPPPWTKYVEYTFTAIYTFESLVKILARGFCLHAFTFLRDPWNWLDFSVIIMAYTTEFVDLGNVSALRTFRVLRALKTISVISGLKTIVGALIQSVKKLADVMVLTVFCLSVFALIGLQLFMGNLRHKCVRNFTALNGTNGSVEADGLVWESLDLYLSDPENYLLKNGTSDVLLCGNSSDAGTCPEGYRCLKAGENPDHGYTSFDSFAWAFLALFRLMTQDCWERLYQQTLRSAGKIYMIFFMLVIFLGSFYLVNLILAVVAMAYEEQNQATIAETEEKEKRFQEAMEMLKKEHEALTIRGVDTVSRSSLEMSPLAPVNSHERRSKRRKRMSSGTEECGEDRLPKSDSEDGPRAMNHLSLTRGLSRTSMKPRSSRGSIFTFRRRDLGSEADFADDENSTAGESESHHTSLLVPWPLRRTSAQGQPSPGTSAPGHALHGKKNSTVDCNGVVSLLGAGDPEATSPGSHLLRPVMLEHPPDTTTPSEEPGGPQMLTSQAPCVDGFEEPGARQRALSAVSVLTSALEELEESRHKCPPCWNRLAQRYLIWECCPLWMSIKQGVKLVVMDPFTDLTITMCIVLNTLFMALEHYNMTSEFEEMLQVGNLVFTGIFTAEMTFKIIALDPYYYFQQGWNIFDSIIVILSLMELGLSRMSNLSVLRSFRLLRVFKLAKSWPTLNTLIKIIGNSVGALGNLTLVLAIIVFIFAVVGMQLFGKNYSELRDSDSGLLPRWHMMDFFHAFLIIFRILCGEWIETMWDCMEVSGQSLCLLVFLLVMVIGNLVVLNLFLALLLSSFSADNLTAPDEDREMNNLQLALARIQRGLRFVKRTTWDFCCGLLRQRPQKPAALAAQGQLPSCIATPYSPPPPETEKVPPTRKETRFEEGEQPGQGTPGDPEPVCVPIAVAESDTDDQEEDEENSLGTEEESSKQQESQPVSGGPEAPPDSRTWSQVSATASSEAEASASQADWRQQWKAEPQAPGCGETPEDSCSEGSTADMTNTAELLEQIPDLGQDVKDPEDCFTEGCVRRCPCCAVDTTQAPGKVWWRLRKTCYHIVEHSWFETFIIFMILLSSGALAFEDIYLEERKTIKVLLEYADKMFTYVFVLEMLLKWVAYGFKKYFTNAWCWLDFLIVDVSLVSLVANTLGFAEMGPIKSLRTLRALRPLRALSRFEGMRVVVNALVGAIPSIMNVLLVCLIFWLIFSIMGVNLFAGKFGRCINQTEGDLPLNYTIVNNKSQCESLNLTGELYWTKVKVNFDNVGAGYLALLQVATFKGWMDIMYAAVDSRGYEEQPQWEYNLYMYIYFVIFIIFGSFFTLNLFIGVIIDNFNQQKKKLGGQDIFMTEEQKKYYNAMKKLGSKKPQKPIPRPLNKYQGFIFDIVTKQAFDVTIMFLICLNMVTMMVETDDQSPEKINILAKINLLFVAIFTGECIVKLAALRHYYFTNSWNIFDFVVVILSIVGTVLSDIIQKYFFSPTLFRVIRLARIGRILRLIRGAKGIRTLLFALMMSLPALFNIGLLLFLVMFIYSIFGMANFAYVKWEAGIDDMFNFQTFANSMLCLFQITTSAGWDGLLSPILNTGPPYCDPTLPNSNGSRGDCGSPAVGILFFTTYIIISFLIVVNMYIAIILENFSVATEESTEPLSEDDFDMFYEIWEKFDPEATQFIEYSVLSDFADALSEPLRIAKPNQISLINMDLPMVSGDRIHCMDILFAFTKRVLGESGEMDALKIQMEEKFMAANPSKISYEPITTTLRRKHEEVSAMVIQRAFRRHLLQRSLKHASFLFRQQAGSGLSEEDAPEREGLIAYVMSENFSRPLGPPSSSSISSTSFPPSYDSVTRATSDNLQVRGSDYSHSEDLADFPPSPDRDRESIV

Turning to `C[C@@H]1OCN(C(=O)c2cc(C3CC3)c(OCC34CC5CC(CC(C5)C3)C4)cc2F)[C@H]1C(=O)O` [Example 163, (4R,5S)-3-[4-(1-adamantylmethoxy)-5-cyclopropyl-2-fluoro-benzoyl]-5-methyl-oxazolidine-4-carboxylic acid], the values for the IC50 in series [1], in series [2] and in series [3] (setting [4]) were 120 nM, 820 nM and 4700 nM, respectively.
For `CC[C@H](NC(=O)c1cc(C2CC2)c(OCC23CC4CC(CC(C4)C2)C3)cc1F)C(=O)O` [Example 87, (S)-2-(4-(adamantan-1-ylmethoxy)-5-cyclopropyl-2-fluorobenzamido)butanoic acid] the same measures were 56 nM, 1300 nM and 7100 nM.
Consider `CC1(C)CCN(C(=O)c2cc(C3CC3)c(OCC34CC5CC(CC(C5)C3)C4)cc2F)C1C(=O)O` (stereo in doubt) [Example 151, (2R)-1-[4-(1-adamantylmethoxy)-5-cyclopropyl-2-fluoro-benzoyl]-3,3-dimethyl-pyrrolidine-2-carboxylic acid], for which the IC50 was 58 nM in series [1], 780 nM in series [2] and 5200 nM in series [3] (setting [4]).
Turning to `CC1(C)CCC(C(=O)O)N1C(=O)c1cc(C2CC2)c(OCC23CC4CC(CC(C4)C2)C3)cc1F` (stereo not drawn) [Example 147, 1-[4-(1-adamantylmethoxy)-5-cyclopropyl-2-fluoro-benzoyl]-5,5-dimethyl-pyrrolidine-2-carboxylic acid], the results for the IC50 in series [1], in series [2] and in series [3] (setting [4]) were 260 nM, 2100 nM and 14000 nM, respectively.
For `O=C(O)[C@@H]1CCCN1C(=O)c1cc(C2CC2)c(OCC2CCN([C@@H](c3cc(Cl)cc(Cl)c3)C(F)(F)F)CC2)cc1F` (single isomer, unassigned) [Example 123b] the same measures were 31 nM, 410 nM and 7700 nM.
Turning to `O=C(O)[C@@H]1CC2(CC2)CN1C(=O)c1cc(C2CC2)c(OCC2(F)CCN(Cc3cc(C(F)(F)F)ccc3Cl)CC2)cc1F` [Example 221, (S)-5-(4-((1-(2-chloro-5-(trifluoromethyl)benzyl)-4-fluoropiperidin-4-yl)methoxy)-5-cyclopropyl-2-fluorobenzoyl)-5-azaspiro[2.4]heptane-6-carboxylic acid], the values for the IC50 in series [1], in series [2] and in series [3] were 500 nM, 1100 nM and 16000 nM, respectively.
Consider `O=C(O)[C@@H]1C[C@@H](F)CN1C(=O)c1cc(C2CC2)c(OCC2CCN(Cc3cc(C(F)(F)F)ccc3F)CC2)cc1F` [Example 103, (2S,4R)-1-(5-cyclopropyl-2-fluoro-4-((1-(2-fluoro-5-(trifluoromethyl)benzyl)-piperidin-4-yl)methoxy)benzoyl)-4-fluoropyrrolidine-2-carboxylic acid], for which the IC50 in series [1] is 33 nM; in series [2] it was 340 nM; in series [3] (setting [5]), at least 30000 nM.
In the case of `C[C@@H](c1cc(Cl)cc(Cl)c1)N1CCC(COc2cc(F)c(C(=O)N3[C@@H]4C[C@@H]4C[C@H]3C(=O)O)cc2C2CC2)CC1` [Example 156, (1R,3S,5R)-4-[5-cyclopropyl-4-[[1-[(1S)-1-(3,5-dichlorophenyl)ethyl]-4-piperidyl]methoxy]-2-fluoro-benzoyl]-4-azabicyclo[3.1.0]hexane-3-carboxylic acid], the IC50 came to 830 nM in series [1], 3100 nM in series [2] and 17000 nM in series [3] (setting [4]).
`C[C@H]1CCN(C(=O)c2cc(C3CC3)c(OCC34CC5CC(CC(C5)C3)C4)cc2F)[C@@H]1C(=O)O` [Example 149, (2S,3S)-1-[4-(1-adamantylmethoxy)-5-cyclopropyl-2-fluoro-benzoyl]-3-methyl-pyrrolidine-2-carboxylic acid]: the IC50 was determined as 10 nM in series [1], 300 nM in series [2] and 17000 nM in series [3] (setting [4]).
In the case of `C[C@H]1CCN(C(=O)c2cc(C3CC3)c(OCC3(C)CN([C@H](c4ccccc4)c4cc(Cl)cc(Cl)c4)C3)cc2F)[C@@H]1C(=O)O` (single isomer, unassigned) [Example 115], the IC50 in series [1] amounted to 7.7 nM; in series [2] it was 300 nM; in series [3] (setting [4]), 11000 nM.
For `O=C(O)C1SCCN1C(=O)c1cc(C2CC2)c(OCC23CC4CC(CC(C4)C2)C3)cc1F` (stereo not drawn) [Example 78, 3-(4-(adamantan-1-ylmethoxy)-5-cyclopropyl-2-fluorobenzoyl)thiazolidine-2-carboxylic acid], in that order: 9.4 nM, 87 nM and 13000 nM.
Regarding `CC(C)Oc1ncc(CN2CCC(F)(COc3cc(F)c(C(=O)N4C[C@H](F)C[C@H]4C(=O)O)cc3C3CC3)CC2)cc1Cl` [Example 109, (2S,4R)-1-(4-((1-((5-chloro-6-isopropoxypyridin-3-yl)methyl)-4-fluoropiperidin-4-yl)methoxy)-5-cyclopropyl-2-fluorobenzoyl)-4-fluoropyrrolidine-2-carboxylic acid], the IC50 in series [1] was 51 nM; in series [2], 890 nM; in series [3] (setting [5]), at least 30000 nM.
As to `COc1ncccc1-c1cc(C(=O)N2CCC[C@H]2C(=O)O)c(F)cc1Oc1cnc(OC(C)C)c(Cl)c1` [Example 179, (S)-1-(4-((5-chloro-6-isopropoxypyridin-3-yl)oxy)-2-fluoro-5-(2-methoxypyridin-3-yl)benzoyl)pyrrolidine-2-carboxylic acid], the figures for the IC50 in series [1], in series [2] and in series [3] (setting [5]) were 400 nM, 830 nM and at least 30000 nM, respectively.
For `C[C@H]1C[C@@H](C(=O)O)N(C(=O)c2cc(C3CC3)c(OCC34CC5CC(CC(C5)C3)C4)cc2F)C1` [Example 148, (2S,4S)-1-[4-(1-adamantylmethoxy)-5-cyclopropyl-2-fluoro-benzoyl]-4-methyl-pyrrolidine-2-carboxylic acid], the IC50 is 49 nM in series [1], 620 nM in series [2] and 17000 nM in series [3] (setting [4]).
As for `O=C(O)[C@@H]1CCCN1C(=O)c1cc(F)c(OCC23CC4CC(CC(C4)C2)C3)cc1F` [Example 71, (4-(adamantan-1-ylmethoxy)-2,5-difluorobenzoyl)-L-proline], the IC50 in series [1] is 6100 nM; in series [2], 11000 nM; in series [3] (setting [5]), at least 30000 nM.
As to `C[C@@H](c1cc(Cl)cc(Cl)c1)N1CCC(C#N)(COc2cc(F)c(C(=O)N3C[C@H](F)C[C@H]3C(=O)O)cc2C2CC2)CC1` (single isomer, unassigned) [Example 126b], the IC50 in series [1] was found to be 100 nM; in series [2] it was 1400 nM; in series [3] (setting [4]), 10000 nM.
Take `O=C(NC(C(=O)O)C1CCC1)c1cc(C2CC2)c(OCC2(F)CCN(Cc3cc(C(F)(F)F)ccc3Cl)CC2)cc1F` (stereo not drawn) [Example 110, 2-(4-((1-(2-chloro-5-(trifluoromethyl)benzyl)-4-fluoropiperidin-4-yl)methoxy)-5-cyclopropyl-2-fluorobenzamido)-2-cyclobutyl acetic acid]: the IC50 in series [1] is 370 nM; in series [2], 10000 nM; in series [3] (setting [4]), 10000 nM.
In the case of `O=C(O)[C@@H]1CCCN1C(=O)c1cc(C2CC2)c(OCC2CCN(Cc3cc(Cl)ccc3C(F)(F)F)CC2)cc1F` [Example 181, (S)-1-(4-((1-(5-chloro-2-(trifluoromethyl)benzyl)piperidin-4-yl)methoxy)-5-cyclopropyl-2-fluorobenzoyl)pyrrolidine-2-carboxylic acid], the results for the IC50 in series [1], in series [2] and in series [3] (setting [5]) were 50 nM, 230 nM and at least 30000 nM, respectively.
